ChEMBL document CHEMBL5055626 (J Med Chem, 2021)
Active and inactive are the calls of the source. The rule behind the calls is not given here. Where a SMILES comes first, the peptide text is derived from it. Bridges are numbered along the chain shown (N, C = ends). [ ]: non-standard residue; d: D form. sY = N[C@@H](Cc1ccc(OS(=O)(=O)O)cc1)C(=O)O

Tests used:
[1] = target: Neuronal acetylcholine receptor; alpha3/beta2 (Rattus norvegicus, UniProt P04757+P12390); assay: Antagonist activity at rat alpha3beta2 nAChR expressed in xenopus oocytes assessed as inhibition of Ach- induced response at -70 mV holding potential preincubated for 5 mins followed by Ach stimulation by voltage-clamp based electrophysiological method; assay type: cell-based, Oocyte
[2] = target: Neuronal acetylcholine receptor subunit alpha-7 (Rattus norvegicus, UniProt Q05941); assay: Antagonist activity at rat alpha7 nAChR expressed in xenopus oocytes assessed as inhibition of Ach- induced response at -70 mV holding potential preincubated for 5 mins followed by Ach stimulation by voltage-clamp based electrophysiological method; assay type: cell-based, Oocyte
[3] = Antagonist activity at human nAChR alpha7 S184N/R186K double mutant expressed in xenopus oocytes assessed as inhibition of Ach- induced response at -70 mV holding potential preincubated for 5 mins followed by Ach stimulation by voltage-clamp based electrophysiological method; assay type: cell-based; settings: Oocyte
[4] = Antagonist activity at rat nAChR alpha7 N184S mutant expressed in xenopus oocytes assessed as inhibition of Ach- induced response at -70 mV holding potential preincubated for 5 mins followed by Ach stimulation by voltage-clamp based electrophysiological method; assay type: cell-based; settings: Oocyte
[5] = Antagonist activity at rat nAChR alpha7 Q141H mutant expressed in xenopus oocytes assessed as inhibition of Ach- induced response at -70 mV holding potential preincubated for 5 mins followed by Ach stimulation by voltage-clamp based electrophysiological method; assay type: cell-based; settings: Oocyte
[6] = target: Neuronal acetylcholine receptor subunit alpha-7 (Homo sapiens, UniProt P36544); assay type: cell-based, Oocyte
[7] = Antagonist activity at rat nAChR alpha7 K186R mutant expressed in xenopus oocytes assessed as inhibition of Ach- induced response at -70 mV holding potential preincubated for 5 mins followed by Ach stimulation by voltage-clamp based electrophysiological method; assay type: cell-based; settings: Oocyte
[8] = Antagonist activity at human nAChR alpha7 R186K mutant expressed in xenopus oocytes assessed as inhibition of Ach- induced response at -70 mV holding potential preincubated for 5 mins followed by Ach stimulation by voltage-clamp based electrophysiological method; assay type: cell-based; settings: Oocyte
[9] = Antagonist activity at human nAChR alpha7 S184N mutant expressed in xenopus oocytes assessed as inhibition of Ach- induced response at -70 mV holding potential preincubated for 5 mins followed by Ach stimulation by voltage-clamp based electrophysiological method; assay type: cell-based; settings: Oocyte
[10] = target: Nicotinic acetylcholine receptor alpha9/alpha10 (Rattus norvegicus, UniProt P43144+Q9JLB5); assay: Antagonist activity at rat alpha9alpha10 nAChR expressed in xenopus oocytes assessed as inhibition of Ach- induced response at -70 mV holding potential preincubated for 5 mins followed by Ach stimulation by voltage-clamp based electrophysiological method; assay type: cell-based, Oocyte
[11] = target: Neuronal acetylcholine receptor; alpha4/beta4 (Rattus norvegicus, UniProt P09483+P12392); assay: Antagonist activity at rat alpha4beta4 nAChR expressed in xenopus oocytes assessed as inhibition of Ach- induced response at -70 mV holding potential preincubated for 5 mins followed by Ach stimulation by voltage-clamp based electrophysiological method; assay type: cell-based, Oocyte
[12] = target: Nicotinic acetylcholine receptor alpha6/alpha3/beta4 (Homo sapiens, UniProt P30926+P32297+Q15825); assay: Antagonist activity at rat alpha6/alpha3beta4 nAChR expressed in xenopus oocytes assessed as inhibition of Ach- induced response at -70 mV holding potential preincubated for 5 mins followed by Ach stimulation by voltage-clamp based electrophysiological method; assay type: cell-based, Oocyte
[13] = target: Neuronal acetylcholine receptor; alpha4/beta2 (Rattus norvegicus) (UniProt P09483+P12390); assay: Antagonist activity at rat alpha4beta2 nAChR expressed in xenopus oocytes assessed as inhibition of Ach- induced response at 10 uM at -70 mV holding potential preincubated for 5 mins followed by Ach stimulation by voltage-clamp based electrophysiological method; assay type: cell-based; settings: Oocyte
[14] = target: Neuronal acetylcholine receptor; alpha3/beta4 (Rattus norvegicus, UniProt P04757+P12392); assay: Antagonist activity at rat alpha3beta4 nAChR expressed in xenopus oocytes assessed as inhibition of Ach- induced response at -70 mV holding potential preincubated for 5 mins followed by Ach stimulation by voltage-clamp based electrophysiological method; assay type: cell-based, Oocyte
[15] = target: Neuronal acetylcholine receptor; alpha4/beta4 (Rattus norvegicus) (UniProt P09483+P12392); assay: Antagonist activity at rat alpha4beta4 nAChR expressed in xenopus oocytes assessed as inhibition of Ach- induced response at 10 uM at -70 mV holding potential preincubated for 5 mins followed by Ach stimulation by voltage-clamp based electrophysiological method; assay type: cell-based; settings: Oocyte
[16] = target: Neuronal acetylcholine receptor; alpha2/beta4 (Rattus norvegicus) (UniProt P12389+P12392); assay: Antagonist activity at rat alpha2beta4 nAChR expressed in xenopus oocytes assessed as inhibition of Ach- induced response at 10 uM at -70 mV holding potential preincubated for 5 mins followed by Ach stimulation by voltage-clamp based electrophysiological method; assay type: cell-based; settings: Oocyte
[17] = target: Neuronal acetylcholine receptor; alpha2/beta4 (Rattus norvegicus, UniProt P12389+P12392); assay: Antagonist activity at rat alpha2beta4 nAChR expressed in xenopus oocytes assessed as inhibition of Ach- induced response at -70 mV holding potential preincubated for 5 mins followed by Ach stimulation by voltage-clamp based electrophysiological method; assay type: cell-based, Oocyte
[18] = Antagonist activity at rat alpha6/ alpha3beta2beta3 nAChR expressed in xenopus oocytes assessed as inhibition of Ach- induced response at -70 mV holding potential preincubated for 5 mins followed by Ach stimulation by voltage-clamp based electrophysiological method; assay type: cell-based; settings: Oocyte
[19] = target: Neuronal acetylcholine receptor; alpha4/beta2 (Rattus norvegicus, UniProt P09483+P12390); assay: Antagonist activity at rat alpha4beta2 nAChR expressed in xenopus oocytes assessed as inhibition of Ach- induced response at -70 mV holding potential preincubated for 5 mins followed by Ach stimulation by voltage-clamp based electrophysiological method; assay type: cell-based, Oocyte
[20] = target: Nicotinic acetylcholine receptor alpha9/alpha10 (Rattus norvegicus) (UniProt P43144+Q9JLB5); assay: Antagonist activity at rat alpha9alpha10 nAChR expressed in xenopus oocytes assessed as inhibition of Ach- induced response at 10 uM at -70 mV holding potential preincubated for 5 mins followed by Ach stimulation by voltage-clamp based electrophysiological method; assay type: cell-based; settings: Oocyte
[21] = target: Neuronal acetylcholine receptor; alpha3/beta4 (Rattus norvegicus) (UniProt P04757+P12392); assay: Antagonist activity at rat alpha3beta4 nAChR expressed in xenopus oocytes assessed as inhibition of Ach- induced response at 10 uM at -70 mV holding potential preincubated for 5 mins followed by Ach stimulation by voltage-clamp based electrophysiological method; assay type: cell-based; settings: Oocyte
[22] = target: Neuronal acetylcholine receptor; alpha2/beta2 (Rattus norvegicus) (UniProt P12389+P12390); assay: Antagonist activity at rat alpha2beta2 nAChR expressed in xenopus oocytes assessed as inhibition of Ach- induced response at 10 uM at -70 mV holding potential preincubated for 5 mins followed by Ach stimulation by voltage-clamp based electrophysiological method; assay type: cell-based; settings: Oocyte
[23] = target: Neuronal acetylcholine receptor; alpha2/beta2 (Rattus norvegicus, UniProt P12389+P12390); assay: Antagonist activity at rat alpha2beta2 nAChR expressed in xenopus oocytes assessed as inhibition of Ach- induced response at -70 mV holding potential preincubated for 5 mins followed by Ach stimulation by voltage-clamp based electrophysiological method; assay type: cell-based, Oocyte
Sequence of Neuronal acetylcholine receptor; alpha2/beta2 (P12389 whole entry): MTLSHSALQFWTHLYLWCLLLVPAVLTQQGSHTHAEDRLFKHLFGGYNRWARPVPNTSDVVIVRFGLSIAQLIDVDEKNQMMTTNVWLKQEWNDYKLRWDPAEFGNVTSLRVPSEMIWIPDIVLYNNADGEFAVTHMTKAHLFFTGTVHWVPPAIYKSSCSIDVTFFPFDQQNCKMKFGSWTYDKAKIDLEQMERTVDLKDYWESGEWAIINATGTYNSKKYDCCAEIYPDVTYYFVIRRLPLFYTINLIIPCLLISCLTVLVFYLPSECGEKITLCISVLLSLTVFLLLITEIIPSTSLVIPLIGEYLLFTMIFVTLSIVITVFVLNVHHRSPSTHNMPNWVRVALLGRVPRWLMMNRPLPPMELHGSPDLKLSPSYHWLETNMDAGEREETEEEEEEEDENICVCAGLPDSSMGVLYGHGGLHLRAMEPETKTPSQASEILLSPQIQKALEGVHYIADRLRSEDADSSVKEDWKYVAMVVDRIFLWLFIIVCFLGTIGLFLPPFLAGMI
Sequence of Neuronal acetylcholine receptor; alpha2/beta2 (P12390 whole entry): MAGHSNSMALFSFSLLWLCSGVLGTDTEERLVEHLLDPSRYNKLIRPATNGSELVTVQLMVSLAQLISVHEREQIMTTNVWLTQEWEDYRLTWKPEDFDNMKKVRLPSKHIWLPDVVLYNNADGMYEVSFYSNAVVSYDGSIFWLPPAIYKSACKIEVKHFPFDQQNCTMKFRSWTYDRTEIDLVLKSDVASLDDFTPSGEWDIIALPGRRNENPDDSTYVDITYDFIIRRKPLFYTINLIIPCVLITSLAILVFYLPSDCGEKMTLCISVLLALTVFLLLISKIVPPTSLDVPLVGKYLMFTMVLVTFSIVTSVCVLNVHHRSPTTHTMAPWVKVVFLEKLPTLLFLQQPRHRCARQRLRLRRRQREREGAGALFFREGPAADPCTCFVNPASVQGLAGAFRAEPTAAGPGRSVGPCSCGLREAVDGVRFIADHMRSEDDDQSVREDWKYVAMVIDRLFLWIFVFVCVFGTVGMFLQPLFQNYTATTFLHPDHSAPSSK

Sequence of Neuronal acetylcholine receptor; alpha3/beta2 (P04757 whole entry): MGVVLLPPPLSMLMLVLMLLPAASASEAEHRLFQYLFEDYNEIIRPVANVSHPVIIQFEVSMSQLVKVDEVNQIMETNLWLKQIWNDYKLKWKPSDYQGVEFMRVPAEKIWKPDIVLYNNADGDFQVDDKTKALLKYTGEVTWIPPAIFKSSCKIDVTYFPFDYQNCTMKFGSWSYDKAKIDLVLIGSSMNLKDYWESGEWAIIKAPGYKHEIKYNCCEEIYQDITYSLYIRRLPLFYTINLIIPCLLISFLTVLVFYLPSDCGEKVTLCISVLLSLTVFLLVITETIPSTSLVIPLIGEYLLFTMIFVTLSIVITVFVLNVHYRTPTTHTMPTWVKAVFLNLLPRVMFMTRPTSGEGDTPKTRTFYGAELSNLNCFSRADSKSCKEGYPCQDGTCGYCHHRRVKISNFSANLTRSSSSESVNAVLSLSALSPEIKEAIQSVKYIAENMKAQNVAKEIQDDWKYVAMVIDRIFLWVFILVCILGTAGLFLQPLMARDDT
Sequence of Neuronal acetylcholine receptor; alpha3/beta2 (P12390 whole entry): as the sequence (P12390 whole entry) above
Sequence of Neuronal acetylcholine receptor subunit alpha-7 (Rattus norvegicus, UniProt Q05941) (Q05941 whole entry): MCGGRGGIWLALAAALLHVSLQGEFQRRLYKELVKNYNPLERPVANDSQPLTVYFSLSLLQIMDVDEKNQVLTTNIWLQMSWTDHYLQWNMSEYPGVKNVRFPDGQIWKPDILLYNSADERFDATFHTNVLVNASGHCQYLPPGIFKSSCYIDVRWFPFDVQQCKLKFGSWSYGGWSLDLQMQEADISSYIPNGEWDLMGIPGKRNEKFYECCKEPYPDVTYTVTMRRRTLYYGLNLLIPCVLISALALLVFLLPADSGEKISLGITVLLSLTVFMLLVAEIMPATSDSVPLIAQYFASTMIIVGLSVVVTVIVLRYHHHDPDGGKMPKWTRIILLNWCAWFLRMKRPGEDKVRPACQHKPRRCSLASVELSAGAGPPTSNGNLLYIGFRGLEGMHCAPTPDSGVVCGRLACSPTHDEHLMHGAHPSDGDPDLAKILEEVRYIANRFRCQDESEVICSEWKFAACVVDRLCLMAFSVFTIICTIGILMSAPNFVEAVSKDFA
Sequence of Neuronal acetylcholine receptor; alpha3/beta4 (P04757 whole entry): as the sequence (P04757 whole entry) above
Sequence of Neuronal acetylcholine receptor; alpha3/beta4 (P12392 whole entry): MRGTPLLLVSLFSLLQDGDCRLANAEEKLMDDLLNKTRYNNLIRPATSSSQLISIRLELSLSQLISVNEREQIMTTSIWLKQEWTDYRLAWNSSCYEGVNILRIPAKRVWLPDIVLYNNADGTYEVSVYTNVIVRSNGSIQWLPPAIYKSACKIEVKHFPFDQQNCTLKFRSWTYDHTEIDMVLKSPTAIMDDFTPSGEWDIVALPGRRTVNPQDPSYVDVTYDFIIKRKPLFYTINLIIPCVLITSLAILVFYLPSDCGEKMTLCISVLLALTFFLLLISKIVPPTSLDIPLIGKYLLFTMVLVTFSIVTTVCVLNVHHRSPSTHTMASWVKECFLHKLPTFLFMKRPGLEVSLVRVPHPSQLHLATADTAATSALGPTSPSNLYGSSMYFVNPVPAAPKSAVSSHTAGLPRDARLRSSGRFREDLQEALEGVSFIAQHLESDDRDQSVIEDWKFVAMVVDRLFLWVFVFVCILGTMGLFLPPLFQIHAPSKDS
Sequence of Neuronal acetylcholine receptor; alpha2/beta4 (P12389 whole entry): as the sequence (P12389 whole entry) above
Sequence of Neuronal acetylcholine receptor; alpha2/beta4 (P12392 whole entry): as the sequence (P12392 whole entry) above

CC[C@H](C)[C@H](N)C(=O)N[C@@H](CCCNC(=N)N)C(=O)N[C@@H](CC(=O)O)C(=O)N[C@@H](CCC(=O)O)C(=O)N[C@H]1CSSC[C@H]2NC(=O)[C@H](C)NC(=O)[C@@H]3CCCN3C(=O)[C@H](CC(N)=O)NC(=O)[C@H](CO)NC(=O)[C@H](CSSC[C@@H](C(=O)N[C@@H](CCCNC(=N)N)C(=O)N[C@@H](CCCNC(=N)N)C(=O)N[C@@H](CCCNC(=N)N)C(=O)O)NC(=O)[C@H](C(C)C)NC(=O)[C@H](Cc3cnc[nH]3)NC(=O)[C@@H]3CCCN3C(=O)[C@H](CC(N)=O)NC(=O)[C@H](CC(N)=O)NC(=O)[C@H](C(C)C)NC(=O)[C@H](CCCNC(=N)N)NC2=O)NC1=O
IC50 [1]: 0.018 µM

C[C@@H]1NC(=O)[C@H](C)NC(=O)[C@@H]2CSSC[C@H](NC(=O)CNC(=O)CN)C(=O)N[C@@H](CSSC[C@@H](C(N)=O)NC(=O)[C@H](Cc3ccc(OS(=O)(=O)O)cc3)NC(=O)[C@H](CC(=O)O)NC(=O)[C@H](CCC(N)=O)NC(=O)[C@H](CC(N)=O)NC(=O)[C@H](CC(N)=O)NC1=O)C(=O)N[C@@H](CO)C(=O)N[C@@H](Cc1cnc[nH]1)C(=O)N1CCC[C@H]1C(=O)N[C@@H](C)C(=O)N2
IC50 [1]: 0.00028 µM

CC[C@H](C)[C@@H]1NC(=O)[C@H](Cc2cnc[nH]2)NC(=O)[C@@H]2CCCN2C(=O)[C@H](CC(N)=O)NC(=O)[C@H](CC(N)=O)NC(=O)[C@H](C(C)C)NC(=O)[C@H](CC(N)=O)NC(=O)[C@@H]2CSSC[C@H](NC(=O)CN)C(=O)N[C@@H](CSSC[C@@H](C(=O)O)NC1=O)C(=O)N[C@@H](CO)C(=O)N[C@@H](CC(=O)O)C(=O)N1CCC[C@H]1C(=O)N[C@@H](C)C(=O)N2 (H-GCCSDPACNVNNPHIC-OH; disulfide 2-8, 3-16)
IC50 [2]: 0.1 µM | IC50 [3]: 0.099 µM | IC50 [4]: 0.13 µM | IC50 [5]: 0.12 µM | IC50 [6]: 13.7 µM | IC50 [7]: 7.48 µM | IC50 [8]: 0.2 µM | IC50 [9]: 7.14 µM

CC(C)C[C@@H]1NC(=O)[C@H](CC(=O)O)NC(=O)[C@@H]2CCCN2C(=O)[C@H](Cc2cnc[nH]2)NC(=O)[C@H](C)NC(=O)[C@H](CC(N)=O)NC(=O)[C@H](CCCNC(=N)N)NC(=O)[C@@H]2CSSC[C@H](NC(=O)CN)C(=O)N[C@@H](CSSC[C@@H](C(=O)O)NC1=O)C(=O)N[C@@H](CO)C(=O)N[C@@H](CC(=O)O)C(=O)N1CCC[C@H]1C(=O)N1CCC[C@H]1C(=O)N2 (H-GCCSDPPCRNAHPDLC-OH; disulfide 2-8, 3-16)
IC50 [2]: 0.2 µM | IC50 [3]: 0.28 µM | IC50 [4]: 3.29 µM | IC50 [5]: 0.28 µM | IC50 [6]: > 10 µM | IC50 [7]: > 10 µM | IC50 [8]: 1.58 µM | IC50 [9]: > 10 µM

CSCC[C@@H]1NC(=O)[C@H](CC(N)=O)NC(=O)[C@@H]2CSSC[C@H](NC(=O)CN)C(=O)N[C@@H](CSSC[C@@H](C(=O)O)NC(=O)[C@H](Cc3ccc(OS(=O)(=O)O)cc3)NC(=O)[C@H](CC(=O)O)NC(=O)[C@@H]3CCCN3C(=O)[C@H](CC(N)=O)NC(=O)[C@H](CC(N)=O)NC1=O)C(=O)N[C@@H](CO)C(=O)N[C@@H](CC(=O)O)C(=O)N1CCC[C@H]1C(=O)N[C@@H](CCCNC(=N)N)C(=O)N2 (H-GCCSDPRCNMNNPD[sY]C-OH; disulfide 2-8, 3-16)
IC50 [2]: 0.03 µM

C[C@@H]1NC(=O)[C@@H]2CSSC[C@H](NC(=O)CN)C(=O)N[C@@H](CSSC[C@@H](C(=O)N[C@@H](CCCNC(=N)N)C(=O)O)NC(=O)[C@H](Cc3cnc[nH]3)NC(=O)[C@H](CCC(=O)O)NC(=O)[C@H](Cc3cnc[nH]3)NC1=O)C(=O)N[C@@H](CO)C(=O)N[C@@H](CC(N)=O)C(=O)N1CCC[C@H]1C(=O)N1CCC[C@H]1C(=O)N2 (H-GCCSNPPCAHEHCR-OH; disulfide 2-8, 3-13)
IC50 [10]: > 10 µM | IC50 [11]: > 10 µM | IC50 [2]: 1.1 µM | IC50 [12]: > 10 µM | inhibition [13]: inactive | IC50 [14]: > 10 µM | inhibition [15]: inactive | inhibition [16]: inactive | IC50 [17]: > 10 µM | IC50 [18]: 0.63 µM | IC50 [19]: > 10 µM | IC50 [1]: > 10 µM | inhibition [20]: inactive | inhibition [21]: inactive | inhibition [22]: inactive | IC50 [23]: > 10 µM

C[C@@H]1NC(=O)[C@@H]2CSSC[C@H](NC(=O)[C@@H](N)CCC(N)=O)C(=O)N[C@@H](CSSC[C@@H](C(N)=O)NC(=O)[C@H](Cc3cnc[nH]3)NC(=O)[C@H](CCC(=O)O)NC(=O)[C@H](Cc3cnc[nH]3)NC1=O)C(=O)N[C@@H](CO)C(=O)N[C@@H](CC(N)=O)C(=O)N1CCC[C@H]1C(=O)N1CCC[C@H]1C(=O)N2 (H-QCCSNPPCAHEHC-NH2; disulfide 2-8, 3-13)
IC50 [10]: > 10 µM | IC50 [11]: > 10 µM | IC50 [2]: 0.47 µM | IC50 [12]: > 10 µM | inhibition [13]: inactive | IC50 [14]: > 10 µM | inhibition [15]: inactive | inhibition [16]: inactive | IC50 [17]: > 10 µM | IC50 [18]: 0.55 µM | IC50 [19]: > 10 µM | IC50 [1]: 1.56 µM | inhibition [20]: inactive | inhibition [21]: inactive | inhibition [22]: inactive | IC50 [23]: > 10 µM
